Here are results for four molecules from ChEMBL document CHEMBL1201862, “PubChem BioAssay data set” (2004).

Among the test systems are CAKI-1; DU-145; EKVX; HCT-15; HOP-62; Hs-578T; LOX IMVI; MCF7; MDA-N; NCI/ADR-RES; OVCAR-8; RXF 393; SF-295; SNB-75; T47D; TK-10; NCI-H226; NCI-H460; SNB-19; UACC-257.
Assay in all cases: NCI anticancer screen, dose series, 48 h

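Cells were grown in 96-well plates and exposed to each compound for 48 hours at five concentrations; endpoints were interpolated linearly between bracketing concentrations, or set to the highest concentration if not reached. GI50 is the concentration that inhibits growth by half.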 Active and inactive are the calls of the source. No stated cut-off is given here; in the data, active = GI50 up to about 1.1 µM and inactive = higher.

With `CCC(C)N1CN(c2ccccc2)C2(CCN(CCCC(=O)c3ccc(F)cc3)CC2)C1=O` (stereo not drawn), the GI50 in the test on CAKI-1 was 2.25 µM (inactive); in the test on DU-145 it was 0.927 µM (active); with EKVX, 10.8 µM (inactive); in the test on HCT-15, 5.33 µM; in the test on HOP-62 it was 1.87 µM (inactive); in the test with Hs-578T it was 13.7 µM (inactive). Moreover, the GI50 was 2.74 µM (inactive) in the test with LOX IMVI; 0.381 µM (active) with MCF7; 11.7 µM (inactive) in the test on MDA-N; 83 µM (inactive) in the test with NCI/ADR-RES; > 10 µM (inactive) in the test on OVCAR-8; 14.2 µM (inactive) with RXF 393. Moreover, the GI50 is 4.55 µM (inactive) with SF-295, 19.5 µM (inactive) in the test on SNB-75, 1.68 µM (inactive) in the test on T47D and 4.85 µM (inactive) in the test with TK-10.

Take `C=CCCC1(CC(Sc2ccccc2)P(=O)(c2ccccc2)c2ccccc2)OCCO1` (stereo not drawn): the GI50 was > 10 µM (inactive) in the test on CAKI-1; > 10 µM (inactive) in the test on DU-145; > 10 µM (inactive) in the test on EKVX; more than 10 µM with HCT-15; > 10 µM (inactive) in the test with HOP-62; > 10 µM (inactive) in the test on Hs-578T. For the same molecule, the GI50 in the test with LOX IMVI, in the test on MCF7, with MDA-N, in the test on NCI-H226, in the test with NCI-H460 and in the test on NCI/ADR-RES was > 10 µM (inactive) in each case. Moreover, the GI50 in the test with OVCAR-8, in the test on RXF 393, with SF-295, in the test with SNB-19, in the test with T47D and in the test with TK-10 was > 10 µM (inactive) throughout. In addition, in the test on UACC-257, the GI50 is > 10 µM (inactive).

As for `CCOC(=O)c1nc2cc(F)c(F)cc2nc1NCc1cc(OC)c(OC)c(OC)c1`, the GI50 in the test on CAKI-1 is > 100 µM (inactive); in the test on DU-145, > 100 µM (inactive); in the test on EKVX, > 100 µM (inactive); with HCT-15, more than 100 µM; in the test with HOP-62, 38.5 µM (inactive); in the test with Hs-578T it was 50.7 µM (inactive). Besides, the GI50 in the test on LOX IMVI, with MCF7, in the test on MDA-N, in the test on NCI-H460, in the test with NCI/ADR-RES and in the test with OVCAR-8 was > 100 µM (inactive) in each case. For the same molecule, the GI50 with RXF 393 is 30.1 µM (inactive); in the test with SF-295 it was > 100 µM (inactive); with SNB-19, 42.5 µM (inactive); in the test with SNB-75, 16.5 µM (inactive); with T47D it was > 100 µM (inactive); in the test with TK-10, > 100 µM (inactive). For the same molecule, the GI50 in the test on UACC-257 is > 100 µM (inactive).

Turning to `CC(C)(C)C1CCC2c3c([nH]c4ccccc34)C3C(=O)N(c4ccc5c(c4)C(=O)c4ccccc4C5=O)C(=O)C3C2C1` (stereo not drawn), the GI50 with CAKI-1 is > 100 µM (inactive); in the test with DU-145, > 100 µM (inactive); with EKVX it was > 100 µM (inactive); in the test with HCT-15, more than 100 µM; in the test on HOP-62, > 100 µM (inactive); in the test on Hs-578T, > 100 µM (inactive). Also, the GI50 in the test on LOX IMVI, with MCF7, with MDA-N, with NCI-H226, with NCI-H460 and in the test on NCI/ADR-RES was > 100 µM (inactive) in each case. For the same molecule, the GI50 in the test with OVCAR-8, with RXF 393, with SF-295, with SNB-19, in the test on T47D and in the test with TK-10 was > 100 µM (inactive) each time. Besides, the GI50 in the test on UACC-257 is > 100 µM (inactive).
